From patent US6326492A, “Heterocyclic protease inhibitors” (3-Dimensional Pharmaceuticals, Inc., priority 2000, dated 2001)
Where a name gives a salt, the structure may show the parent alone.

Target: T1, Human α-thrombin (Homo sapiens, UniProt P00734)
T1 construct: Human α-thrombin, was obtained from Enzyme Research Laboratories; purchased Enzyme Research Laboratories (South Bend, Ind.)
Test: In vitro inhibition of purified thrombin (Ki determination, p-nitroanilide substrate hydrolysis)
Assay type: biochemical
Details: purified human α-thrombin 0.5 nM, substrate N-succinyl-Ala-Ala-Pro-Arg-p-nitroanilide, 50 mM HEPES, 200 mM NaCl, pH 7.5, 37° C.; read-out: thrombin inhibitory activity
Excerpt: Reagents: All buffer salts were obtained from Sigma Chemical Company (St. Louis, Mo.), and were of the highest purity available. The enzyme substrates, N-benzoyl-Phe-Val-Arg-p-nitroanilide (Sigma B7632), N-benzoyl-Ile-Glu-Gly-Arg-p-nitroanilide hydrochloride (Sigma B2291), N-p-Tosyl-Gly-Pro-Lys-p-nitroanilide (Sigma T6140), N-succinyl-Ala-Ala-Pro-Phe-p-nitroanilide (Sigma S7388) and N-CBZ-Val-Gly-Arg-p-nitroanilide (Sigma C7271) were obtained from Sigma. N-succinyl-Ala-Ala-Pro-Arg-p-nitroanilide (BACHEM L-1720) and N-succinyl-Ala-Ala-Pro-Val-p-nitroanilide (BACHEM L-1770) were obtained from BACHEM (King of Prussia, Pa.). […]
Ki Determinations: All assays are based on the ability of the test compound to inhibit the enzyme catalyzed hydrolysis of a peptide p-nitroanilide substrate. […] In general, substrate concentrations are lower than the experimentally determined value for Km. […]
In a typical Ki determination, into each well of a 96 well plate is pipetted […] of substrate solution, […] of test compound solution, and the plate allowed to thermally equilibrate at 37° C. in a Molecular Devices plate reader for>15 minutes. Reactions were initiated by the addition of a […] aliquot of enzyme and the absorbance increase at 405 nm is recorded for 15 minutes. […] The data are fit to a linear regression, and the value of the slope of the line calculated. […]

Ki [nM] | SMILES
26 | Cc1cccc(S(=O)(=O)Nc2ccc(C)n(CC(=O)NCC3CNC(=N)NO3)c2=O)c1 (centres unmarked) [Example 1, N-[(3-Imino(1,2,4-oxadiazaperhydroin-6-yl))methyl]-2-(6methyl-3-{[(3methylphenyl)sulfonyl]amino}-2-oxohydropyridyl)acetamide trifluoroacetate]
0.38 | Cc1cccc(S(=O)(=O)Nc2ccc(C)n(CC(=O)NC3CCN(C(=N)N)OC3)c2=O)c1 (centres unmarked) [Example 2, 5-[2-(6-Methyl-3-{[(3-methylphenyl)sulfonyl]amino}-2-oxohydropyridyl)acetylamino]-1,2-oxazaperhydroine-2-carboxamidine trifluoroacetate]
